# Measurements taken from patent US9981975B2, “Pyrrolotriazine compounds as tam inhibitors” (Incyte Corporation, priority 2016, dated 2018).
# Columns and labels:
# Assay type in all cases: biochemical
# [1] = target: phosphor-Axl (Homo sapiens (Human), UniProt P30530); test: TAM Enzymatic Assay (HTRF), Axl; conditions: recombinant autophosphorylated Axl, 60 min, room temperature
# [2] = target: Tyro3 (Homo sapiens (Human), UniProt Q06418); test: TAM Enzymatic Assay (HTRF), Tyro3; conditions: Tyro3, 60 min, room temperature
# Method in brief: (§1)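 Reactions ran 60 min at room temperature, protected from light, started by substrate addition to enzyme plus DMSO compound, in pH 7.5 HEPES buffer with 10 mM MgCl2, 1 mM EGTA, 0.01% NP-40, 2 mM DTT.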
# [3] = target: c-Mer (Homo sapiens (Human), UniProt Q12866); test: TAM Enzymatic Assay (HTRF), Mer; conditions: 60 min, room temperature
# Method in brief: as §1
# c-Mer, sequence (Q12866 21-999): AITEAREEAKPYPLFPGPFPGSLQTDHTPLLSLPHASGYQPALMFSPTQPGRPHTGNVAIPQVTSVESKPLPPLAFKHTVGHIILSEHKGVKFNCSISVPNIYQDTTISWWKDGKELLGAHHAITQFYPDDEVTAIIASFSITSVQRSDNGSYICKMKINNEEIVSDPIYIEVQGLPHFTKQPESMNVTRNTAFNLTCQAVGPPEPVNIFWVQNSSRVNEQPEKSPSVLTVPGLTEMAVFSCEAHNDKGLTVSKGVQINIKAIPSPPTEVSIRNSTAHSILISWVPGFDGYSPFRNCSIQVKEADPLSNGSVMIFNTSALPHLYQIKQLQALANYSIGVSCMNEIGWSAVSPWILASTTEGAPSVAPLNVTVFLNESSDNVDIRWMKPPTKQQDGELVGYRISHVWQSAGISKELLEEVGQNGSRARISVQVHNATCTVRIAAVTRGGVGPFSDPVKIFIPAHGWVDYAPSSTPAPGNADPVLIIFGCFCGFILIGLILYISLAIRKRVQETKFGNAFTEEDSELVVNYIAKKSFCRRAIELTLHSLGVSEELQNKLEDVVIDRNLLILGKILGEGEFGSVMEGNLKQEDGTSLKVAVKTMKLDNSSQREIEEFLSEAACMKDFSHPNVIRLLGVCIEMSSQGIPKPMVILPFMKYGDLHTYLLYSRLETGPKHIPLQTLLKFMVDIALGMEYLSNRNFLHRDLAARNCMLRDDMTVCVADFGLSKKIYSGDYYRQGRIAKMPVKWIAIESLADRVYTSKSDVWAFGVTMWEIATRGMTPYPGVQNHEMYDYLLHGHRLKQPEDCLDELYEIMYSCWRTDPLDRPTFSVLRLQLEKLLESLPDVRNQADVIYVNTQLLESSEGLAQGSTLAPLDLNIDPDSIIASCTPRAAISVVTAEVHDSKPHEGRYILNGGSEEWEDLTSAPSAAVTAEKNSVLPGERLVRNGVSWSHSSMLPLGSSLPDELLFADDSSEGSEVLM
# Tyro3, sequence (Q06418 41-890): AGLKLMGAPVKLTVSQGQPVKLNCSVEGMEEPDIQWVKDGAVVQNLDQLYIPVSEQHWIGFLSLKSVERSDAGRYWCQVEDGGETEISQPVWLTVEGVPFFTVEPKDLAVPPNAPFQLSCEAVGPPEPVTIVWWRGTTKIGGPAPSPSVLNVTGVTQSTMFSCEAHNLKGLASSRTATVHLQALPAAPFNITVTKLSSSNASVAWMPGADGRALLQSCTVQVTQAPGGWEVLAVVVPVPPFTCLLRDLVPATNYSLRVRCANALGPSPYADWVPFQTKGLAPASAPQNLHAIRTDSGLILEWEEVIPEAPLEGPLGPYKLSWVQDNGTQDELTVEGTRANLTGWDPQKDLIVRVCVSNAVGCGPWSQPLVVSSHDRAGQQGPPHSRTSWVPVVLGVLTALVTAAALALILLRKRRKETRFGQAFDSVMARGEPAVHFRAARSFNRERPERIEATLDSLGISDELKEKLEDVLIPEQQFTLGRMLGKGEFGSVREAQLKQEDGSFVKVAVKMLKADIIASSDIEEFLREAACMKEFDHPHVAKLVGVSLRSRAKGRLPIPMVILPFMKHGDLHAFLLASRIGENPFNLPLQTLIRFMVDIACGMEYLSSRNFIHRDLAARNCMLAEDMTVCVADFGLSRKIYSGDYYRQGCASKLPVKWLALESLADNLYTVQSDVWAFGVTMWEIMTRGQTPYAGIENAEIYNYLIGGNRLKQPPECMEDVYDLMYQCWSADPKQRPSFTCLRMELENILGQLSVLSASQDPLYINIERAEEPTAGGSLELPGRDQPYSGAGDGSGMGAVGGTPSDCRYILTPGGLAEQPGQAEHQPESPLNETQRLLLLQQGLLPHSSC
# phosphor-Axl, sequence (P30530 26-894): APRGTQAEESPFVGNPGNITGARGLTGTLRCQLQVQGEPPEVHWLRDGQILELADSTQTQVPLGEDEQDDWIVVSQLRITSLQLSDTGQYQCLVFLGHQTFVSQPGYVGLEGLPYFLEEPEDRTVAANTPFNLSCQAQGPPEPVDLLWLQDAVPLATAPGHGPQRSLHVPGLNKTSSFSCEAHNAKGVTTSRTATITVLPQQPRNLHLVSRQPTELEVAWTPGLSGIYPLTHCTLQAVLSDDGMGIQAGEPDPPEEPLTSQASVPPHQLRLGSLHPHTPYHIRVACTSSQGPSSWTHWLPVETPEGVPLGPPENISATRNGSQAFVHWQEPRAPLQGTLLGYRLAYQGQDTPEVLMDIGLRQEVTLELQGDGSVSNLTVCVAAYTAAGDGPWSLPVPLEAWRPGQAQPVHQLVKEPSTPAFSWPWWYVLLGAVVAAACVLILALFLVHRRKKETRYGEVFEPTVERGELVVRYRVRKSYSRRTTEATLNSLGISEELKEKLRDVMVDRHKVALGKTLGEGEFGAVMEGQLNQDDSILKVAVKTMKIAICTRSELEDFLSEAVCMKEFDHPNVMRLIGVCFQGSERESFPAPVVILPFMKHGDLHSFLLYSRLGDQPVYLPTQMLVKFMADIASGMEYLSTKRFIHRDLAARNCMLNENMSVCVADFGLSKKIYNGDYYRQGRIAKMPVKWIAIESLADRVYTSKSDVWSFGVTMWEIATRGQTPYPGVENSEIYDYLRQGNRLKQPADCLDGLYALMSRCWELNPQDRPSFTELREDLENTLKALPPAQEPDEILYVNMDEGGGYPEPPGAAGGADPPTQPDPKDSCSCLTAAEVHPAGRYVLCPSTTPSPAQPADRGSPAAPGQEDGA
IC50 [1] [nM],IC50 [2] [nM],IC50 [3] [nM],SMILES
≤ 5,> 100,≤ 5,"Cc1c(-c2ccn(C)n2)cc(C(=O)Nc2ccc(-c3cc(C4CCN(C(=O)C(C)C)CC4)n4ncnc(N)c34)cc2)c(=O)n1-c1ccccn1 [Example 125, N-(4-(4-Amino-7-(1-isobutyrylpiperidin-4-yl)pyrrolo[2,1-f][1,2,4]triazin-5-yl)phenyl)-6-methyl-5-(1-methyl-1H-pyrazol-3-yl)-2-oxo-2H-[1,2′-bipyridine]-3-carboxamide]"
≤ 5,> 100,≤ 5,"CCn1cc(C(=O)Nc2ccc(-c3cc(C4CCN(C(=O)N5CCOCC5)CC4)n4ncnc(N)c34)cc2)c(=O)n(-c2ccc(F)cc2)c1=O [Example 68, N-(4-(4-Amino-7-(1-(morpholine-4-carbonyl)piperidin-4-yl)pyrrolo[1,2-f][1,2,4]triazin-5-yl)phenyl)-1-ethyl-3-(4-fluorophenyl)-2,4-dioxo-1,2,3,4-tetrahydropyrimidine-5-carboxamide]"
≤ 5,10 to 100,≤ 5,"Cc1c(-c2ncccn2)cc(C(=O)Nc2ccc(-c3cc(C4CCN(C(=O)C(C)C)CC4)n4ncnc(N)c34)cc2)c(=O)n1-c1ccccc1 [Example 108, N-{4-[4-Amino-7-(1-isobutyrylpiperidin-4-yl)pyrrolo[2,1-f][1,2,4]triazin-5-yl]phenyl}-6-methyl-2-oxo-1-phenyl-5-pyrimidin-2-yl-1,2-dihydropyridine-3-carboxamide]"
≤ 5,10 to 100,≤ 5,CS(=O)(=O)N1CCC(c2cc(-c3ccc(NC(=O)c4cccn(-c5ccccc5)c4=O)cc3F)c3c(N)ncnn23)CC1 [Example 42]
≤ 5,10 to 100,≤ 5,"CC(C)C(=O)N1CCC(c2cc(-c3ccc(NC(=O)c4cn(C(C)C)c(=O)n(-c5ccn(C)n5)c4=O)cc3)c3c(N)ncnn23)CC1 [Example 88, N-(4-(4-Amino-7-(1-isobutyrylpiperidin-4-yl)pyrrolo[2,1-f][1,2,4]triazin-5-yl)phenyl)-1-isopropyl-3-(1-methyl-1H-pyrazol-3-yl)-2,4-dioxo-1,2,3,4-tetrahydropyrimidine-5-carboxamide]"
≤ 5,10 to 100,≤ 5,"CC(C)C(=O)N1CCC(c2cc(-c3ccc(NC(=O)c4cn(C(C)C)c(=O)n(-c5cccnc5)c4=O)cc3)c3c(N)ncnn23)CC1 [Example 78, N-(4-(4-Amino-7-(1-isobutyrylpiperidin-4-yl)pyrrolo[1,2-f][1,2,4]triazin-5-yl)phenyl)-1-isopropyl-2,4-dioxo-3-(pyridin-3-yl)-1,2,3,4-tetrahydropyrimidine-5-carboxamide]"
≤ 5,> 100,≤ 5,"Cc1c(-c2ccn(C)n2)cc(C(=O)Nc2ccc(-c3cc(C4CCN(C(=O)C(C)C)CC4)n4ncnc(N)c34)cc2)c(=O)n1-c1cccnc1 [Example 135, N-(4-(4-Amino-7-(1-isobutyrylpiperidin-4-yl)pyrrolo[2,1-f][1,2,4]triazin-5-yl)phenyl)-6-methyl-5-(1-methyl-1H-pyrazol-3-yl)-2-oxo-2H-[1,3′-bipyridine]-3-carboxamide]"
≤ 5,10 to 100,≤ 5,"CC(C)C(=O)N1CCC(c2cc(-c3ccc(NC(=O)c4cnc(-c5cccnc5)n(-c5ccccc5)c4=O)cc3)c3c(N)ncnn23)CC1 [Example 116, N-{4-[4-Amino-7-(1-isobutyrylpiperidin-4-yl)pyrrolo[2,1-f][1,2,4]triazin-5-yl]phenyl}-6-oxo-1-phenyl-2-pyridin-3-yl-1,6-dihydropyrimidine-5-carboxamide]"
≤ 5,10 to 100,≤ 5,"CN1CCC(c2cc(-c3ccc(NC(=O)c4cccn(-c5ccc(F)cc5)c4=O)cc3F)c3c(N)ncnn23)CC1 [Example 23, N-{4-[4-Amino-7-(1-methylpiperidin-4-yl)pyrrolo[2,1-f][1,2,4]triazin-5-yl]-3-fluorophenyl}-1-(4-fluorophenyl)-2-oxo-1,2-dihydropyridine-3-carboxamide]"
≤ 5,> 100,≤ 5,"CCn1cc(C(=O)Nc2ccc(-c3cc(C4CCN(C(=O)N(C)C)CC4)n4ncnc(N)c34)cc2)c(=O)n(-c2ccc(F)cc2)c1=O [Example 67, N-(4-(4-Amino-7-(1-(dimethylcarbamoyl)piperidin-4-yl)pyrrolo[1,2-f][1,2,4]triazin-5-yl)phenyl)-1-ethyl-3-(4-fluorophenyl)-2,4-dioxo-1,2,3,4-tetrahydropyrimidine-5-carboxamide]"
≤ 5,10 to 100,≤ 5,"CC(C)n1cc(C(=O)Nc2ccc(-c3cc(C4CCN(C(=O)N(C)C)CC4)n4ncnc(N)c34)cc2)c(=O)n(-c2cccc(F)c2)c1=O [Example 70, N-(4-(4-Amino-7-(1-(dimethylcarbamoyl)piperidin-4-yl)pyrrolo[1,2-f][1,2,4]triazin-5-yl)phenyl)-3-(3-fluorophenyl)-1-isopropyl-2,4-dioxo-1,2,3,4-tetrahydropyrimidine-5-carboxamide]"
≤ 5,10 to 100,≤ 5,"CC(C)C(=O)N1CCC(c2cc(-c3ccc(NC(=O)c4cc5c(n(-c6ccccc6)c4=O)CCCC5=O)cc3)c3c(N)ncnn23)CC1 [Example 74, N-(4-(4-Amino-7-(1-isobutyrylpiperidin-4-yl)pyrrolo[1,2-f][1,2,4]triazin-5-yl)phenyl)-2,5-dioxo-1-phenyl-1,2,5,6,7,8-hexahydroquinoline-3-carboxamide]"
≤ 5,10 to 100,≤ 5,"Nc1ncnn2c(C3CCNCC3)cc(-c3ccc(NC(=O)c4cccn(-c5ccccc5)c4=O)cc3)c12 [Example 32, N-[4-(4-Amino-7-piperidin-4-ylpyrrolo[2,1-f][1,2,4]triazin-5-yl)phenyl]-2-oxo-1-phenyl-1,2-dihydropyridine-3-carboxamide]"
≤ 5,5 to 10,≤ 5,Nc1ncnn2c(C3CCN(CCO)CC3)cc(-c3ccc(NC(=O)c4cccn(-c5ccc(F)cc5)c4=O)cc3F)c12 [Example 55]
≤ 5,> 100,≤ 5,"CC(C)C(=O)N1CCC(c2cc(-c3ccc(NC(=O)c4cn(C(C)C)c(=O)n(-c5cnn(C)c5)c4=O)cc3)c3c(N)ncnn23)CC1 [Example 87, N-(4-(4-Amino-7-(1-isobutyrylpiperidin-4-yl)pyrrolo[2,1-f][1,2,4]triazin-5-yl)phenyl)-1-isopropyl-3-(1-methyl-1H-pyrazol-4-yl)-2,4-dioxo-1,2,3,4-tetrahydropyrimidine-5-carboxamide]"
≤ 5,> 100,≤ 5,"Cc1cc(C(=O)Nc2ccc(-c3cc(C4CCN(C(=O)C(C)C)CC4)n4ncnc(N)c34)cc2)c(=O)n(-c2cncc(F)c2)c1C [Example 121, N-(4-(4-Amino-7-(1-isobutyrylpiperidin-4-yl)pyrrolo[2,1-f][1,2,4]triazin-5-yl)phenyl)-5′-fluoro-5,6-dimethyl-2-oxo-2H-[1,3′-bipyridine]-3-carboxamide]"
≤ 5,> 100,≤ 5,"Cc1c(C#N)cc(C(=O)Nc2ccc(-c3cc(C4CCN(C(=O)C(C)C)CC4)n4ncnc(N)c34)cc2)c(=O)n1-c1ccccc1 [Example 111, N-(4-(4-Amino-7-(1-isobutyrylpiperidin-4-yl)pyrrolo[2,1-f][1,2,4]triazin-5-yl)phenyl)-5-cyano-6-methyl-2-oxo-1-phenyl-1,2-dihydropyridine-3-carboxamide]"
≤ 5,> 100,≤ 5,"Cc1cc(C(=O)Nc2ccc(-c3cc(C4CCN(C(=O)C(C)C)CC4)n4ncnc(N)c34)cc2)c(=O)n(-c2ccccc2)c1-c1cccnc1 [Example 106, N-(4-(4-Amino-7-(1-isobutyrylpiperidin-4-yl)pyrrolo[2,1-f][1,2,4]triazin-5-yl)phenyl)-3-methyl-6-oxo-1-phenyl-1,6-dihydro-[2,3′-bipyridine]-5-carboxamide]"
≤ 5,10 to 100,≤ 5,"COC(=O)N1CCC(c2cc(-c3ccc(NC(=O)c4cccn(-c5ccc(F)cc5)c4=O)cc3F)c3c(N)ncnn23)CC1 [Example 39, Methyl 4-{4-amino-5-[2-fluoro-4-({[1-(4-fluorophenyl)-2-oxo-1,2-dihydropyridin-3-yl]carbonyl}amino)phenyl]pyrrolo[2,1-f][1,2,4]triazin-7-yl}piperidine-1-carboxylate]"
≤ 5,10 to 100,≤ 5,"CC(=O)N1CCC(c2cc(-c3ccc(NC(=O)c4cccn(-c5ccccc5)c4=O)cc3F)c3c(N)ncnn23)CC1 [Example 26, N-{4-[7-(1-Acetylpiperidin-4-yl)-4-aminopyrrolo[2,1-f][1,2,4]triazin-5-yl]-3-fluorophenyl}-2-oxo-1-phenyl-1,2-dihydropyridine-3-carboxamide]"
≤ 5,10 to 100,≤ 5,"N#C[C@H]1CC[C@@H](c2cc(-c3ccc(NC(=O)c4cccn(-c5ccccc5)c4=O)cc3F)c3c(N)ncnn32)CC1 [Example 30, N-{4-[4-Amino-7-(cis-4-cyanocyclohexyl)pyrrolo[2,1-f][1,2,4]triazin-5-yl]-3-fluorophenyl}-2-oxo-1-phenyl-1,2-dihydropyridine-3-carboxamide]"
≤ 5,> 100,≤ 5,"Cc1c(-c2ncco2)c(=O)c(C(=O)Nc2ccc(-c3cc(C4CCN(C(=O)C(C)C)CC4)n4ncnc(N)c34)cc2)cn1C1CC1 [Example 119, N-(4-(4-Amino-7-(1-isobutyrylpiperidin-4-yl)pyrrolo[2,1-f][1,2,4]triazin-5-yl)phenyl)-1-cyclopropyl-6-methyl-5-(oxazol-2-yl)-4-oxo-1,4-dihydropyridine-3-carboxamide]"
